Experimental data: patent publication US10626436B2, “Method of determining a compositional or functional characteristic of a cell culture media” (Valitacell Limited, priority 2015, dated 2020)

Tests used:
[1] = test system: reference CHO producer cell; test: Growth of reference CHO producer cell in static microplate culture with a cell stressor in four lots of the same cell culture media; type: cell-based; settings: stressor at an inhibitory concentration, each in triplicate, FIGS. 3-5
Method: FIG. 3: A reference CHO producer cell was grown in static microplate culture in the presence of cobalt chloride (CoCL2) at an inhibitory concentration and four different lots of the same cell culture media (each lot provided in triplicate).
FIG. 4: A reference CHO producer cell was grown in static microplate culture in the presence of menadione sodium bisulphite (MSB2) at an inhibitory concentration and four different lots of the same cell culture media (each lot provided in triplicate).
FIG. 5: A reference CHO producer cell was grown in static microplate culture in the presence of sodium lactate (NaLac) at an inhibitory concentration and four different lots of the same cell culture media (each lot provided in triplicate).

CHO cell line = test: Chemical fingerprinting: growth of CHO cells with cell stressors in two CD-CHO media lots (Presto Blue assay); type: cell-based; settings: CD-CHO media lot 66 vs lot 28; stressor at IC50 concentration, both MSB concentrations; FIG. 2; p<0.05 (Benjamini-Hockberg)
Method: Two different batches of “CD-CHO media” (Invitrogen, Paisley, UK) were obtained. A CHO cell line was grown in these […] media for 3 passages in 30 ml shake flask culture. “Presto Blue” (Invitrogen, Paisley, UK) was mixed 1:1 with CD-CHO media and 20 ul of this was added to each well. The plate was machine shaken and subsequently incubated for 30 minutes at 37 C in a static humidified incubator. After incubation the fluorescence of the wells was measured (excitation 535 nm emission 620 nm) using a fluoroskan ascent (Thermo-Fisher, Loughborough, UK) plate reader. […] It is clear here that there were significant differences in the cell growth in these different batches of media. This was clearly significant from day 4 onwards.
To test the effect this had on the chemical fingerprint, CHO cells were sub-cultured in CD-CHO in either lot number (66) or (28) for 3 passages. Chemical fingerprinting plates were set up in duplicate to determine the growth of cells in the presence of specific cellular stressors
Using the same CHO cell line used above for the growth studies, inhibitory dose 50 (IC50) concentrations of the above chemicals were identified through growth studies. […]
After this period the level of cell growth in the plates (i.e. in the presence and absence of chemicals as mentioned above) was measured using the “Presto Blue” assay as described above. […]

SMILES	growth response of the cell in different lots of the cell culture media in the presence of the stressor [1]	chemical response (cell growth relative to control well) compared between media lots (CHO cell line)
CC1(S(=O)(=O)[O-])CC(=O)c2ccccc2C1=O.[Na+] (stereo not shown) [MSB, Menadione Sodium Bisulphite]	differences in growth response	clearly significant difference
[Cl][Co][Cl] [cobalt chloride, Cobalt chloride]	differences in growth response	
CC(O)C(=O)[O-].[Na+] (stereo not shown) [sodium lactate, Sodium lactate]	differences in growth response	
